Results: patent US20070123546A1, “2-amino-7,8-dihydro-6H-pyrido[4,3-d]pyrimidin-5-ones” (Chiron Corporation, priority 2005, published 2007)

Each molecule was assayed against His-tagged N-terminal ATP binding domain (amino acid residues 9-236) of HSP90α (Homo sapiens, UniProt P07900) (assay: HSP90 inhibitor binding potency: TRF competition binding assay). Conditions: Table 3; competition with biotinylated radicicol.
Summary of the method: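 Competition against biotinylated radicicol for binding to the His-tagged 9-236 ATP domain of HSP90α: 2 h, room temperature, HEPES/MgCl2/KCl/BSA buffer. Streptavidin capture, then europium-labeled anti-His antibody and enhancement solution; europium counts give IC50.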
In the case of `CCN1C(=O)c2c(C)nc(N)nc2C[C@@H]1c1ccc(F)cc1-c1cccnc1` [Compound 110, (R)-2-Amino-6-ethyl-7-(4-fluoro-2-pyridin-3-yl-phenyl)-4-methyl-7,8-dihydro-6H-pyrido[4,3-d]pyrimidin-5-one], the IC50 is reported as < 10 µM. With `CCN1C(=O)c2c(C)nc(N)nc2C[C@@H]1c1ccc(F)cc1-c1cnc(OC)nc1OC` [Compound 111, (R)-2-Amino-7-[2-(2,4-dimethoxy-pyrimidin-5-yl)-4-fluoro-phenyl]-6-ethyl-4-methyl-7,8-dihydro-6H-pyrido[4,3-d]pyrimidin-5-one] the IC50 was > 10 µM. With `Cc1nc(N)nc2c1C(=O)N(Cc1ccccc1)[C@@H](c1ccc(F)cc1-c1ncc(Cl)c(O)n1)C2` [Compound 112, (R)-2-Amino-6-benzyl-7-[2-(5-chloro-4-hydroxy-pyrimidin-2-yl)-4-fluoro-phenyl]-4-methyl-7,8-dihydro-6H-pyrido[4,3-d]pyrimidin-5-one] the IC50 was > 10 µM. `COc1cncc(-c2cc(F)ccc2[C@H]2Cc3nc(N)nc(C)c3C(=O)N2CCO)n1` [Compound 113, (R)-2-Amino-7-[4-fluoro-2-(6-methoxy-pyrazin-2-yl)-phenyl]-6-(2-hydroxy-ethyl)-4-methyl-7,8-dihydro-6H-pyrido[4,3-d]pyrimidin-5-one] was tested, and the IC50 was < 10 µM. `COc1ccc(CN2C(=O)c3c(C)nc(N)nc3C[C@@H]2c2ccc(F)cc2Br)c(OC)c1` [Compound 114, (R)-2-Amino-7-(2-bromo-4-fluoro-phenyl)-6-(2,4-dimethoxy-benzyl)-4-methyl-7,8-dihydro-6H-pyrido[4,3-d]pyrimidin-5-one] was tested, and the IC50 was > 10 µM. With `COc1cncc(-c2cc(F)ccc2[C@H]2Cc3nc(N)nc(C)c3C(=O)N2Cc2cccc(Cl)c2)n1` [Compound 115, (R)-2-Amino-6-(3-chloro-benzyl)-7-[4-fluoro-2-(6-methoxy-pyrazin-2-yl)-phenyl]-4-methyl-7,8-dihydro-6H-pyrido[4,3-d]pyrimidin-5-one] the IC50 was < 10 µM. With `COc1cccc(-c2cc(F)ccc2[C@H]2Cc3nc(N)nc(C)c3C(=O)N2Cc2cccc(Cl)c2)n1` [Compound 116, (R)-2-Amino-6-(3-chloro-benzyl)-7-[4-fluoro-2-(6-methoxy-pyridin-2-yl)-phenyl]-5-methyl-7,8-dihydro-6H-pyrido[4,3-d]pyrimidin-5-one] the IC50 was < 10 µM. `COc1ncc(-c2cc(F)ccc2[C@H]2Cc3nc(N)nc(C)c3C(=O)N2Cc2cccc(Cl)c2)nc1OC` [Compound 117, (R)-2-Amino-6-(3-chloro-benzyl)-7-[2-(5,6-dimethoxy-pyrazin-2-yl)-4-fluoro-phenyl]-4-methyl-7,8-dihydro-6H-pyrido[4,3-d]pyrimidin-5-one] was tested, and the IC50 was < 10 µM. For `COc1ccc(CN2C(=O)c3c(C)nc(N)nc3C[C@@H]2c2ccc(F)cc2-c2cncc(OC)n2)c(OC)c1` [Compound 118, (R)-2-Amino-6-(2,4-dimethoxy-benzyl)-7-[4-fluoro-2-(6-methoxy-pyrazin-2-yl)-phenyl]-4-methyl-7,8-dihydro-6H-pyrido[4,3-d]pyrimidin-5-one], the IC50 was < 10 µM. With `COc1ccc(CN2C(=O)c3c(C)nc(N)nc3C[C@@H]2c2ccc(F)cc2-c2cccc(OC)n2)c(OC)c1` [Compound 119, (R)-2-Amino-6-(2,4-dimethoxy-benzyl)-7-[4-fluoro-2-(6-methoxy-pyridin-2-yl)-phenyl]-4-methyl-7,8-dihydro-6H-pyrido[4,3-d]pyrimidin-5-one] the IC50 was < 10 µM. For `COc1cccc(-c2cc(F)ccc2[C@H]2Cc3nc(N)nc(C)c3C(=O)N2Cc2ccncc2)n1` [Compound 120, (R)-2-Amino-7-[4-fluoro-2-(6-methoxy-pyridin-2-yl)-phenyl]-4-methyl-6-pyridin-4-ylmethyl-7,8-dihydro-6H-pyrido[4,3-d]pyrimidin-5-one], the IC50 was < 10 µM. In the case of `COc1cncc(-c2cc(F)ccc2[C@H]2Cc3nc(N)nc(C)c3C(=O)N2Cc2ccncc2)n1` [Compound 121, (R)-2-Amino-7-[4-fluoro-2-(6-methoxy-pyrazin-2-yl)-phenyl]-4-methyl-6-pyridin-4-ylmethyl-7,8-dihydro-6H-pyrido[4,3-d]pyrimidin-5-one], the IC50 is reported as < 10 µM. For `COc1nc(-c2cc(F)ccc2[C@H]2Cc3nc(N)nc(C)c3C(=O)N2Cc2ccncc2)cnc1N` [Compound 122, (R)-2-Amino-7-[2-(5-amino-6-methoxy-pyrazin-2-yl)-4-fluoro-phenyl]-4-methyl-6-pyridin-4-ylmethyl-7,8-dihydro-6H-pyrido[4,3-d]pyrimidin-5-one], the IC50 was < 10 µM. With `COc1cccc(-c2cc(F)ccc2[C@H]2Cc3nc(N)nc(C)c3C(=O)N2Cc2ccccc2F)n1` [Compound 123, (R)-2-Amino-6-(2-fluoro-benzyl)-7-[4-fluoro-2-(6-methoxy-pyridin-2-yl)-phenyl]-4-methyl-7,8-dihydro-6H-pyrido[4,3-d]pyrimidin-5-one] the IC50 was < 10 µM. `COc1nc(-c2cc(F)ccc2[C@H]2Cc3nc(N)nc(C)c3C(=O)N2Cc2ccccc2F)cnc1N` [Compound 124, (R)-2-Amino-7-[2-(5-amino-6-methoxy-pyrazin-2-yl)-4-fluoro-phenyl]-6-(2-fluoro-benzyl)-4-methyl-7,8-dihydro-6H-pyrido[4,3-d]pyrimidin-5-one] was tested, and the IC50 was < 10 µM. With `COc1cccc(-c2cc(F)ccc2[C@H]2Cc3nc(N)nc(C)c3C(=O)N2Cc2ccccc2Cl)n1` [Compound 125, (R)-2-Amino-6-(2-chloro-benzyl)-7-[4-fluoro-2-(6-methoxy-pyridin-2-yl)-phenyl]-4-methyl-7,8-dihydro-6H-pyrido[4,3-d]pyrimidin-5-one] the IC50 was < 10 µM. `COc1nc(-c2cc(F)ccc2[C@H]2Cc3nc(N)nc(C)c3C(=O)N2Cc2ccccc2Cl)cnc1N` [Compound 126, (R)-2-Amino-7-[2-(5-amino-6-methoxy-pyrazin-2-yl)-4-fluoro-phenyl]-6-(2-chloro-benzyl)-4-methyl-7,8-dihydro-6H-pyrido[4,3-d]pyrimidin-5-one] was tested, and the IC50 was < 10 µM. For `COc1cncc(-c2cc(F)ccc2[C@H]2Cc3nc(N)nc(C)c3C(=O)N2Cc2cccc(C(F)(F)F)c2)n1` [Compound 127, (R)-2-Amino-7-[4-fluoro-2-(6-methoxy-pyrazin-2-yl)-phenyl]-4-methyl-6-(3-trifluoromethyl-benzyl)-7,8-dihydro-6H-pyrido[4,3-d]pyrimidin-5-one], the IC50 was < 10 µM. With `COc1cccc(-c2cc(F)ccc2[C@H]2Cc3nc(N)nc(C)c3C(=O)N2Cc2cccc(C(F)(F)F)c2)n1` [Compound 128, (R)-2-Amino-7-[4-fluoro-2-(6-methoxy-pyridin-2-yl)-pheny 1]-4-methyl-6-(3-trifluoromethyl-benzyl)-7,8-dihydro-6H-pyrido[4,3-d]pyrimidin-5-one] the IC50 was < 10 µM. With `COc1cncc(-c2cc(F)ccc2[C@H]2Cc3nc(N)nc(C)c3C(=O)N2Cc2ccccc2F)n1` [Compound 129, (R)-2-Amino-6-(2-fluoro-benzyl)-7-[4-fluoro-2-(6-methoxy-pyrazin-2-yl)-phenyl]-4-methyl-7,8-dihydro-6H-pyrido[4,3-d]pyrimidin-5-one] the IC50 was < 10 µM. For `COc1cncc(-c2cc(F)ccc2[C@H]2Cc3nc(N)nc(C)c3C(=O)N2Cc2ccccc2Cl)n1` [Compound 130, (R)-2-Amino-6-(2-chloro-benzyl)-7-[4-fluoro-2-(6-methoxy-pyrazin-2-yl)-phenyl]-4-methyl-7,8-dihydro-6H-pyrido[4,3-d]pyrimidin-5-one], the IC50 was < 10 µM.
